Experimental data reported in patent publication US20190142949A1, “COVALENT CONJUGATES” (GLAXOSMITHKLINE INTELLECTUAL PROPERTY DEVELOPMENT LIMITED, priority 2015, published 2019).

Tests used:
[1] = biological target: T1, Bromodomain BRD4 Binding Domain 1 (BD1) [BRD4 (Y390A)] (Homo sapiens, UniProt O60885, Y390A); experiment: TR-FRET binding assay, Bromodomain BRD4 BD1 mutant assay; details: for IC50: TR-FRET, BRD4 (Y390A) 10 nM, Alexa Fluor647 ligand at Kd, read-out: pIC50 in the BRD4 BD1 assay (converted)
T1 construct: made in house; host or cells: E. coli (pET15b vector)
Protocol: Binding was assessed using a time resolved fluorescent resonance energy transfer binding assay. This utilises a 6 His purification tag at the N-terminal of the proteins as an epitope for an anti-6 His antibody labeled with Europium chelate (PerkinElmer AD0111) allowing binding of the Europium to the proteins which acts as the donor fluorophore. A small molecule, high affinity binder of the bromodomain BRD4 has been labeled with Alexa Fluor647 (Reference Compound X) and this acts as the acceptor in the FRET pair.
In the absence of a competing compound, excitation of the Europium causes the donor to emit at λ618 nm which excites the Alexa labelled bromodomain binding compound leading to an increased energy transfer that is measurable at λ647 nM. In the presence of a sufficient concentration of a compound that can bind these proteins, the interaction is disrupted leading to a quantifiable drop in fluorescent resonance energy transfer.
The binding of Examples 1 to 11 to Bromodomain BRD4 was assessed using mutated proteins to detect differential binding to Binding Domain 1 (BD1) on the bromodomain. These single residue mutations in the acetyl lysine binding pocket greatly lower the affinity of the fluoroligand (Reference Compound X) for the mutated domain (>1000 fold selective for the non-mutated domain). Therefore in the final assay conditions, binding of the fluoroligand to the mutated domain cannot be detected and subsequently the assay is suitable to determine the binding of compounds to the single non-mutated bromodomain.
Recombinant Human Bromodomain [BRD4 (Y390A)] was expressed in E colicells (pET15b vector) with a 6-His tag at the N-terminal. […]
All assay components were dissolved in buffer composition of 50 mM HEPES pH7.4, 50 mM NaCl, 5% Glycerol, 1 mM DTT and 1 mM CHAPS. […] Plates were then read on the Envision platereader, (λex=317 nm, donor λem=615 nm; acceptor λem=665 nm; Dichroic LANCE dual). Time resolved fluorescent intensity measurements were made at both emission wavelengths and the ratio of acceptor/donor was calculated and used for data analysis. […]

[2] = tested on: LPS induced MCP-1 production from human whole blood; experiment: LPS induced MCP-1 production from human whole blood; format: cell-based; details: LPS 200 ng/mL, 18-24 hours, read-out: pIC50, LPS induced MCP-1 production (converted)
Protocol: Activation of monocytic cells by agonists of toll-like receptors such as bacterial lipopolysaccharide (LPS) results in production of key inflammatory mediators including MCP-1. Such pathways are widely considered to be central to the pathophysiology of a range of auto-immune and inflammatory disorders. Blood is collected in a tube containing Sodium heparin (Leo Pharmaceuticals) (10 units of heparin/mL of blood). 96-well compound plates containing 1 μL test sample in 100% DMSO were prepared (two replicates on account of donor variability). 130 μL of whole blood was dispensed into each well of the 96-well compound plates and incubated for 30 min at 37° C., 5% CO2. 10 μL of lipopolysaccharide (from Salmonella typhosa; L6386) made up in PBS (200 ng/mL final assay concentration) was added to each well of the compound plates. The plates were then placed in the humidified primary cell incubator for 18-24 hours at 37° C., 5% CO2. 140 μL of PBS was added to all wells of the compound plates containing blood. The plates were then sealed and centrifuged for 10 mins at 2500 rpm. […] 150 μL of 2×MSD Read Buffer T (stock 4×MSD Read Buffer T was diluted 50:50 with de-ionised water) was then added to each well and the plates read on the MSD Sector Imager 6000. Concentration response curves for each compound were generated from the data and an IC50 value was calculated.

| IC50 [1] | IC50 [2] | SMILES | selectivity of the fluoroligand for the non-mutated domain over the mutated domain ([1]; single residue mutations in the acetyl lysine binding pocket) |
| --- | --- | --- | --- |
| 794 nM | 79.4 nM | Cc1cc(-c2nc3cc(CN[C@@H](CC(C)C)C(=O)OC4CCCC4)ccc3n2CC2CCOCC2)c[nH]c1=O [Example 3, (S)-cyclopentyl 4-methyl-2-(((2-(5-methyl-6-oxo-1,6-dihydropyridin-3-yl)-1-((tetrahydro-2H-pyran-4-yl)methyl)-1H-benzo[d]imidazol-5-yl)methyl)amino)pentanoate] | – |
| – | – | COc1ccc2c(c1)C(c1ccc(Cl)cc1)=N[C@@H](CC(=O)NCCCCCNC(=O)CCCCCC1(C)/C(=C/C=C/C=C/C3=[N+](CCCCS(=O)(=O)O)c4ccc(S(=O)(=O)O)cc4C3(C)C)N(CCCCS(=O)(=O)[O-])c3ccc(S(=O)(=O)O)cc31)c1nnc(C)n1-2 (some centres unmarked) [Reference Compound X, reference compound] | > 1000 fold |
| 398 nM | 2510 nM | Cc1cc(-c2nc3ccccc3n2CC2CCOCC2)c[nH]c1=O [Example 10, 3-methyl-5-(1-((tetrahydro-2H-pyran-4-yl)methyl)-1H-benzo[d]imidazol-2-yl)pyridin-2(1H)-one] | – |
